From ChEMBL document CHEMBL2074497, “Involvement of rat organic anion transporter 3 (rOAT3) in cephaloridine-induced nephrotoxicity: in comparison with rOAT1” (Life Sci, 2002)

Legend:
Assay type in all cases: functional, cell-based
[1] = biological target: T1, Organic anion transporter 3 (Rattus norvegicus, UniProt Q9R1U7); test: TP_TRANSPORTER: inhibition of Estrone sulfate uptake in OAT3-expressing S2 cells
T1 sequence (Q9R1U7 whole entry): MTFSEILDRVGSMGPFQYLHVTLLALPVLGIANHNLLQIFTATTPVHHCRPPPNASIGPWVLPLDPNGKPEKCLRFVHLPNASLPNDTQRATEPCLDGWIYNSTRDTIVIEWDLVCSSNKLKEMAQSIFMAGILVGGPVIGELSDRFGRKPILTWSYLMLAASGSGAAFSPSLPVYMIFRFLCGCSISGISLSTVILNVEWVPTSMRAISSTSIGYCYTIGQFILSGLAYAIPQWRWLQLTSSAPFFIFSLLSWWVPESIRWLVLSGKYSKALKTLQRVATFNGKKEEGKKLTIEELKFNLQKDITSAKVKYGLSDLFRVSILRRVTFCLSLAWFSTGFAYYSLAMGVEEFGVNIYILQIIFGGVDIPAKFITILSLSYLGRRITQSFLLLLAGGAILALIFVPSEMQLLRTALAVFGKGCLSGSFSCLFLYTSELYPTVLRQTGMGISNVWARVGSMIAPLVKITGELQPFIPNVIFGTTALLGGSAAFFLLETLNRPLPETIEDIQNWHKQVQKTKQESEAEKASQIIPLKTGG

[2] = biological target: T2, Solute carrier family 22 member 6 (Rattus norvegicus, UniProt O35956); test: TP_TRANSPORTER: inhibition of PAH uptake in OAT1-expressing S2 cells
T2 sequence (O35956 whole entry): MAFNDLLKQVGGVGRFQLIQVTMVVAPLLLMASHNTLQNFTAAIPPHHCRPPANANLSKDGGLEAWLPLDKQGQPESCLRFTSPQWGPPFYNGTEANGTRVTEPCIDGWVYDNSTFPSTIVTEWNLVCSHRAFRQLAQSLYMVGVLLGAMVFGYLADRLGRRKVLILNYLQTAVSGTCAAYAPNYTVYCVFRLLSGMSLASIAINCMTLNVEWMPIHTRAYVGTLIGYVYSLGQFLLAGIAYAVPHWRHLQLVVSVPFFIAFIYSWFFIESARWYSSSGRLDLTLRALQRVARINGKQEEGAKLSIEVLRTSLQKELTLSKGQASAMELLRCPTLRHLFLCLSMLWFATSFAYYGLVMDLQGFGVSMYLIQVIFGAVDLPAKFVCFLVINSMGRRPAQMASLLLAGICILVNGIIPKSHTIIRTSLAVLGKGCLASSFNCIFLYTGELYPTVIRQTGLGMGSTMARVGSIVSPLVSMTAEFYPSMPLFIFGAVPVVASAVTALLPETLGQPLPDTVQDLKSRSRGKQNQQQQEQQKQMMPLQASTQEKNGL

[3] = biological target: T1, Organic anion transporter 3; test: TP_TRANSPORTER: uptake in OAT3-expressing S2 cells; details: mouse

Structure (SMILES): CC1=C(C(=O)O)N2C(=O)[C@@H](NC(=O)[C@H](N)c3ccc(O)cc3)[C@H]2SC1 [CEFADROXIL]
- IC50 [1]: 1780 µM

Structure (SMILES): Cn1nnnc1SCC1=C(C(=O)O)N2C(=O)[C@@H](NC(=O)[C@H](O)c3ccccc3)[C@H]2SC1 [CEFAMANDOLE]
- IC50 [1]: 90 µM

Structure (SMILES): Cc1nnc(SCC2=C(C(=O)O)N3C(=O)[C@@H](NC(=O)Cn4cnnn4)[C@H]3SC2)s1 [CEFAZOLIN]
- Ki [1]: 780 µM

Structure (SMILES): CCN1CCN(C(=O)N[C@@H](C(=O)N[C@@H]2C(=O)N3C(C(=O)O)=C(CSc4nnnn4C)CS[C@H]23)c2ccc(O)cc2)C(=O)C1=O [CEFOPERAZONE]
- Ki [1]: 670 µM

Structure (SMILES): CO/N=C(\C(=O)N[C@@H]1C(=O)N2C(C(=O)O)=C(COC(C)=O)CS[C@H]12)c1csc(N)n1 [CEFOTAXIME]
- IC50 [1]: 800 µM

Structure (SMILES): CO/N=C(\C(=O)N[C@@H]1C(=O)N2C(C(=O)O)=C(CSc3nc(=O)c(=O)[nH]n3C)CS[C@H]12)c1csc(N)n1 [CEFTRIAXONE]
- IC50 [1]: > 2000 µM

Structure (SMILES): CC1=C(C(=O)O)N2C(=O)[C@@H](NC(=O)[C@H](N)c3ccccc3)[C@H]2SC1 [CEPHALEXIN ANHYDROUS]
- IC50 [2]: > 2 mM
- IC50 [1]: 630 µM

Structure (SMILES): O=C(Cc1cccs1)N[C@@H]1C(=O)N2C(C(=O)[O-])=C(C[n+]3ccccc3)CS[C@H]12 [CEPHALORIDINE]
- Ki [1]: 1140 µM
- Activity [3]: substrate [+]

Structure (SMILES): CC(=O)OCC1=C(C(=O)O)N2C(=O)[C@@H](NC(=O)Cc3cccs3)[C@H]2SC1 [CEPHALOTHIN]
- Ki [1]: 48 µM
